According to patent publication US20250064886A1, “CARDIOVASCULAR AND CEREBROVASCULAR DRUG AND USE THEREOF” (HANGZHOU ADAMERCK PHARMLABS INC., priority 2021, published 2025):
Marks after values point to notes of the source that are not given here.

Tests used:
[1] = system: vascular endothelial injury induced thrombosis model in zebrafish; test: Preventative effect on vascular endothelial injury induced thrombosis, ponatinib zebrafish model (Example 1); type: in vivo; conditions: 4.00 ng/tail injected
Description: Experimental method: 420 tails of 5 dpf wild type AB strain zebrafish were randomly selected and placed in a six-well plate, with 30 fish per well (experimental group). The fish were injected with compound (1), compound (2), compound (3), compound (4), compound (5), compound (6), compound (7), compound (8), compound (9), compound (10), and compound (11) (structural formula shown in Table 1) at a dose of 4.00 ng/tail, with positive control drug acetylsalicylic acid being administered by dissolving it in water at a concentration of 30.0 µg/mL. Normal control group (i.e. zebrafish treated with standard diluted water) and model control group were set up, with a capacity of 3 mL per well (experimental group). Except for normal control group, the remaining experimental groups were all given Punatinib by dissolving it in water to induce vascular endothelial injury induced thrombosis model in zebrafish. The zebrafish were stained with o-dianisidine after co-treatment with ponatinib and samples for a period of time under incubation conditions at 28° C.
After staining, 10 zebrafish in each group were randomly selected and photographed under the microscope, and the intensity of cardiac erythrocyte staining in zebrafish was analyzed using NIS-Elements D 3.20 advanced image-processing software, and the samples were evaluated for the preventative effect on vascular endothelial injury induced thrombosis by the statistical results of cardiac erythrocyte staining intensity.
The preventative effect on thrombosis is calculated as follows: […]
Statistical analysis was performed using SPSS software, and p<0.05 indicates significant differences

[2] = system: Erastin-induced neuronal cells; test: Cell viability (CCK8) of Erastin-induced neuronal cells (Example 8); type: cell-based, rat; conditions: for Cell viability (%): Erastin 50 μM
Description: (§1) Experimental method: Primary neuron cells were incubated in a medium containing Erastin (final concentration of 50 μM) for 24 hours, and then incubated in a medium containing different concentrations of the test drug and Erastin (final concentration of 50 μM) for another 24 hours. After incubation, Real time PCR was used to detect mRNA expression of GPX4 in each group of cells, CCK8 assay was used to detect cell viability in each group of cells, C11-BODIPY probe method was used to detect intracellular lipid ROS levels in each group of cells, and PGSK probe method was used to detect iron content in cells.
(§2) The experimental data were expressed in means±SD, and statistical differences between groups were determined using one-way ANOVA and Tukey's test, with p-values less than 0.05 considered significant.
After incubation, the CCK8 experiment was used to detect the cell viability of each group of cells. The results were presented as Mean±SD. Compared with control group, ***p<0.0001. Compared with model control group, ^#P<0.05, ^##P<0.01.

[3] = system: lipid ROS levels in Erastin-induced nerve cells; test: Lipid ROS levels (C11-BODIPY probe) in Erastin-induced nerve cells (Example 8); type: cell-based, rat; conditions: Erastin 50 μM
Description: as §1, §2
After incubation, the C11-BODIPY probe method was used to detect the lipid ROS levels in each group of cells. The results were presented as Mean±SD. Compared with the control group, ***p<0.0001; compared with the model group, #p<0.05, ##p<0.01.

[4] = system: iron content in Erastin-induced neuronal cells; test: Iron content (PGSK probe) in Erastin-induced neuronal cells (Example 8); type: cell-based, rat; conditions: Erastin 50 μM
Description: as §1, §2
After incubation, the PGSK probe method was used to detect the intracellular iron content. The results were presented as Mean±SD. Compared with the control group, ***p<0.0001; Compared with the model group, #p<0.05, ##p<0.01.

GPX4 mRNA = GPX4 mRNA expression (real time PCR) in Erastin-induced neuronal cells (Example 8); type: cell-based, rat; conditions: Erastin 50 μM
Description: as §1, §2
After incubation, real time PCR was used to detect the mRNA expression of GPX4 in each group of cells. The results were presented as Mean±SD. Compared with the control group, ***p<0.0001; Compared with the model group, #p<0.05, […].

[5] = system: vascular inflammation in high-glucose and high-fat zebrafish; test: Regressive effect on vascular inflammation in high-glucose and high-fat zebrafish (Example 9); type: in vivo
Description: Experimental method: 360 tails of 5 dpf macrophage fluorescent zebrafish were randomly selected and placed in beakers with 30 tails in each beaker, compound (1), compound (3), and compound (5) were given intravenously, and the positive control group was given atorvastatin calcium by dissolving it in water at a concentration of 30 μg/mL, while the normal control group (fish farming water-treated zebrafish) and the model control group were set up, and the volume of each beaker (experimental group) was 25 mL. Except for the normal control group, all other groups were given high-lipids and high-sucrose feed by dissolving it in water. Compound (1), compound (3) and compound (5) group were co-treated with high-lipids and high-sucrose feed for 30 h. The treatment was carried out up to 9 dpf, and 10 zebrafish were randomly selected from each experimental group to collect the intensity of the macrophage fluorescence within the tail vein and around the tail vein of the zebrafish under fluorescence microscope, and the results of the statistical analysis were used to evaluate the regressive effect of compound (1), compound (3), compound (5) on zebrafish vascular inflammation in the high sugar and high fat model.

CC(=O)N[C@H](CSCC1OC2OC3C(CSC[C@@H](NC(C)=O)C(=O)[O-])OC(OC4C(CSC[C@@H](NC(C)=O)C(=O)[O-])OC(OC5C(CSC[C@@H](NC(C)=O)C(=O)[O-])OC(OC6C(CSC[C@@H](NC(C)=O)C(=O)[O-])OC(OC7C(CSC[C@@H](NC(C)=O)C(=O)[O-])OC(OC1C(O)C2O)C(O)C7O)C(O)C6O)C(O)C5O)C(O)C4O)C(O)C3O)C(=O)[O-].[Na+].[Na+].[Na+].[Na+].[Na+].[Na+] (stereo partly shown) [Compound (3)]
Preventative effect on thrombosis (%) [1]: 17%
Cardiac erythrocyte staining intensity (pixels, mean ± SE) ([1]; n = 10): 3045 ± 219 pixels
Cardiac erythrocyte staining intensity (pixels, mean ± SE) ([1]; n = 10, listed as compound (3)): 3045 pixels
Cell viability (%) ([2]; 1 μM, 24 h, control = 100, Mean±SD): 52.87 ± 2.55%
Cell viability (%) ([2]; 2.5 μM): 56.6 ± 4.76%
Cell viability (%) ([2]; 5 μM): 62.52 ± 8.51%
Cell viability (%) ([2]; 10 μM): 66.77 ± 6.27%
Cell viability (%) ([2]; 20 μM): 73.21 ± 8.1^# %
Cell viability (%) ([2]; 40 μM): 77.95 ± 6.34^## %
Concentration above which cell viability was significantly increased compared with the model group ([2]; p<0.05): greater than 10 μM
Lipid ROS levels (%) ([3]; 1 μM, control = 100, Mean±SD): 146.56 ± 7.67%
Lipid ROS levels (%) ([3]; 2.5 μM): 141.34 ± 4.22%
Lipid ROS levels (%) ([3]; 5 μM): 136.81 ± 7.9%
Lipid ROS levels (%) ([3]; 10 μM): 132.38 ± 2.23%
Lipid ROS levels (%) ([3]; 20 μM): 125.33 ± 9.79^# %
Lipid ROS levels (%) ([3]; 40 μM): 120.37 ± 10.16^## %
Iron content (PGSK probe) ([4]; 1 μM, control = 100, PGSK fluorescence, weaker = more iron): 56.48 ± 3.32^
Iron content (PGSK probe) ([4]; 2.5 μM): 62.3 ± 7
Iron content (PGSK probe) ([4]; 5 μM): 67.06 ± 11.62
Iron content (PGSK probe) ([4]; 10 μM): 71.61 ± 9.86^
Iron content (PGSK probe) ([4]; 20 μM): 76.67 ± 7.25^#
Iron content (PGSK probe) ([4]; 40 μM): 83.81 ± 9.91^##
Expression of GPX4 mRNA (GPX4 mRNA; 1 μM, control about 1.00, Mean±SD): 0.4359 ± 0.05
Expression of GPX4 mRNA (GPX4 mRNA; 2.5 μM): 0.4875 ± 0.01
Expression of GPX4 mRNA (GPX4 mRNA; 5 μM): 0.5407 ± 0.06
Expression of GPX4 mRNA (GPX4 mRNA; 10 μM): 0.6152 ± 0.07^##
Expression of GPX4 mRNA (GPX4 mRNA; 20 μM): 0.6765 ± 0.07^##
Expression of GPX4 mRNA (GPX4 mRNA; 40 μM): 0.7421 ± 0.08^##
Anti-inflammatory effect (%) ([5]; 11.1 ng/tail intravenous): 38*** %
Fluorescence intensity of perivascular macrophage (pixels, Mean ± SE) ([5]; 11.1 ng/tail intravenous): 113809 ± 7995 pixels
Anti-inflammatory effect (%) ([5]; 33.3 ng/tail intravenous): 36*** %
Fluorescence intensity of perivascular macrophage (pixels, Mean ± SE) ([5]; 33.3 ng/tail intravenous): 118747 ± 6434 pixels
Anti-inflammatory effect (%) ([5]; 100 ng/tail intravenous): 36*** %
Fluorescence intensity of perivascular macrophage (pixels, Mean ± SE) ([5]; 100 ng/tail intravenous): 118504 ± 10539 pixels

O=S(=O)(O)CCCCOCC1OC2OC3C(COCCCCS(=O)(=O)O)OC(OC4C(COCCCCS(=O)(=O)O)OC(OC5C(COCCCCS(=O)(=O)O)OC(OC6C(COCCCCS(=O)(=O)O)OC(OC7C(COCCCCS(=O)(=O)O)OC(OC8C(COCCCCS(=O)(=O)O)OC(OC1C(O)C2O)C(O)C8O)C(O)C7O)C(O)C6O)C(O)C5O)C(O)C4O)C(O)C3O (stereo not shown) [Compound (11)]
Preventative effect on thrombosis (%) [1]: 79%
Cardiac erythrocyte staining intensity (pixels, mean ± SE) ([1]; n = 10): 4749 ± 12 pixels
Cardiac erythrocyte staining intensity (pixels, mean ± SE) ([1]; n = 10, listed as compound (11)): 4749 pixels
